For experiment [1], the system named is Human alphaherpesvirus 1. Kind of experiment: Antiviral activity against herpes simplex virus 1 at 20 ug. The class given is functional, organism-based.
In experiment [2] the test system is Murine hepatitis virus. Briefly: Antiviral activity against mouse coronavirus at 10 ug. The format is functional, organism-based.
The test system of experiment [3] is P388. Briefly: Cytotoxicity against mouse P388 cells at 13 ug/ml. The format is functional, cell-based.
For experiment [4], the system named is Murine hepatitis virus. Briefly: Antiviral activity against mouse coronavirus at 50 ug/ml. The format is functional, organism-based.
The subject of experiment [5] is Murine hepatitis virus. Kind of experiment: Antiviral activity against mouse coronavirus at 400 ug/ml. The format is functional, organism-based.
In experiment [6] the test system is P388. Briefly: Cytotoxicity against mouse P388 cells at 0.1 ug. The class given is functional, cell-based.
Experiment [7] deals with P388. Kind of experiment: Cytotoxicity against mouse P388 cells at 10 ug/ml. The class given is functional, cell-based.
Experiment [8] deals with Murine hepatitis virus. Kind of experiment: Antiviral activity against mouse coronavirus at 80 ug/ml. The format is functional, organism-based.
The test system of experiment [9] is Human alphaherpesvirus 1. Kind of experiment: Antiviral activity against herpes simplex virus 1 at 80 ug/ml. The format is functional, organism-based.

Data on six compounds can be found in ChEMBL document CHEMBL1151115, “Brianthein V, a New Cytotoxic and Antiviral Diterpene Isolated from Briareum asbestinum” (J Nat Prod, 1988).

Each structure is given as a SMILES string. Activity calls are given as the source filed them. No cut-off for these calls is given here.

In the case of `Nc1ncnc2c1ncn2[C@@H]1O[C@H](CO)[C@@H](O)[C@@H]1O`, the result in [1] was Active.

For the compound `NC(=O)c1ncn([C@@H]2O[C@H](CO)[C@@H](O)[C@H]2O)n1`, the outcome in experiment [2] was Active.

For the compound `C=C1/C=C\[C@H](OC(=O)CCC)[C@]2(C)[C@H]([C@@H](C)[C@H](OC(=O)CCC)[C@@H]3O[C@@H]32)[C@H](OC(C)=O)[C@]2(O)[C@@H](C)C(=O)O[C@H]2[C@H]1Cl`, the result in experiment [3] and in experiment [4] was Active.

Turning to `C=C1/C=C\[C@H](OC(=O)CCC)[C@]2(C)[C@H]([C@@H](C)[C@H](OC(C)=O)[C@@H]3O[C@@H]32)[C@H](OC(C)=O)[C@]2(O)[C@@H](C)C(=O)O[C@H]2[C@H]1Cl`, the outcome in experiment [5] was Active.

In the case of `O=c1[nH]cc(F)c(=O)[nH]1`, the outcome in experiment [6] was Active.

`C=C1/C=C\[C@H](OC(C)=O)[C@]2(C)[C@H]([C@@H](C)[C@H](OC(C)=O)[C@@H]3O[C@@H]32)[C@H](OC(C)=O)[C@]2(O)[C@@H](C)C(=O)O[C@H]2[C@H]1Cl`: the outcome in experiment [7], in experiment [8] and in experiment [9] was Active.
